Assay results from US10100046B2, “Inhibitors of lysine specific demethylase-1” (Celgene Quanticel Research, Inc., priority 2014, dated 2018).

How the values were obtained:
THP-1 (AML) cells = test: LSD1 CD11b Cellular Assay (flow cytometry); format: cell-based; details: Homo sapiens, 96 h; CD11b expression in THP-1 cells, 4 days
Description: To analyze LSD1 inhibitor efficacy in cells, a CD11b flow cytometry assay was performed. LSD1 inhibition induces CD11b expression in THP-1 (AML) cells which can be measured by flow cytometry. […] LSD1 test compounds were serially diluted in DMSO. The dilutions were added to each well accordingly to a final concentration of 0.2% DMSO. The cells were incubated at 37 degrees Celsius in 5% CO2 for 4 days. 250 μL of each well was transferred to a well in a 96 well round bottom plate. The plate was centrifuged at 1200 rpm at 4 degrees Celsius in a Beckman Coulter Alegra 6KR centrifuge for 5 minutes. The media was removed leaving the cells at the bottom of the wells. The cells were washed in 100 μL cold HBSS (Hank's Balanced Salt Solution) plus 2% BSA (Bovine Serum Albumin) solution and centrifuged at 1200 rpm at 4 degrees Celsius for 5 minutes. The wash was removed. […] The cells were centrifuged and washed two times in 100 μl HBSS plus 2% BSA. After the final spin the cells were resuspended in 100 μL HBSS plus 2% BSA containing 1 ug/mL DAPI (4′,6-diamidino-2-phenylindole). The cells were then analyzed by flow cytometry in a BD FACSAria machine. Cells were analyzed for CD11b expression. The percent of CD11b expressing cells for each inhibitor concentration was used to determine an IC50 curve for each compound analyzed.

full-length human LSD1 = full-length human LSD1 (Homo sapiens (Human), UniProt O60341); test: In Vitro Enzyme Inhibition Assay—LSD-1 (TR-FRET); format: biochemical; details: H3K4me1-biotin labeled peptide
Description: This assay determines the ability of a test compound to inhibit LSD1 demethylase activity. E. coli expressed full-length human LSD1 (Accession number 060341) was purchased from Active Motif (Cat#31334).
The enzymatic assay of LSD1 activity is based on Time Resolved-Fluorescence Resonance Energy Transfer (TR-FRET) detection. The inhibitory properties of compounds to LSD1 were determined in 384-well plate format under the following reaction conditions: 0.1-0.5 nM LSD1, 50 nM H3K4me1-biotin labeled peptide (Anaspec cat #64355), 2 μM FAD in assay buffer of 50 mM HEPES, pH7.3, 10 mM NaCl, 0.005% Brij35, 0.5 mM TCEP, 0.2 mg/ml BSA. Reaction product was determined quantitatively by TR-FRET after the addition of detection reagent Phycolink Streptavidin-allophycocyanin (Prozyme) and Europium-anti-unmodified histone H3 lysine 4 (H3K4) antibody (PerkinElmer) in the presence of LSD1 inhibitor such as 1.8 mM of Tranylcypromine hydrochloride (2-PCPA) in LANCE detection buffer (PerkinElmer) to final concentration of 12.5 nM and 0.25 nM respectively.
The assay reaction was performed according to the following procedure: 2 μL of the mixture of 150 nM H3K4me1-biotin labeled peptide with 2 μL of 11-point serial diluted test compound in 3% DMSO were added to each well of plate, followed by the addition of 2 μL of 0.3 nM LSD1 and 6 μM of FAD to initiate the reaction. The reaction mixture was then incubated at room temperature for one hour, and terminated by the addition of 6 μL of 1.8 mM 2-PCPA in LANCE detection buffer containing 25 nM Phycolink Streptavidin-allophycocyanin and 0.5 nM Europium-anti-unmodified H3K4 antibody. Enzymatic reaction is terminated within 15 minutes if 0.5 LSD1 enzyme is used in the plate. Plates were read by EnVision Multilabel Reader in TR-FRET mode (excitation at 320 nm, emission at 615 nm and 665 nm) after 1 hour incubation at room temperature. A ratio was calculated (665/615) for each well and fitted to determine inhibition constant (IC50).
The ability of the compounds disclosed herein to inhibit LSD1 activity was quantified and the respective IC50 value was determined. Table 3 provides the IC50 values of various substituted heterocyclic compounds disclosed herein.

Row | IC50 (THP-1 (AML) cells) [nM] | IC50 (full-length human LSD1) [nM] | Structure (SMILES)
1 | < 100 | ≤ 100 | N#Cc1ccc(-c2nc(N3CCC(N)CC3)cc(=O)n2-c2ccc(C3CC3)c(F)c2)cc1F [Example 33, 4-[4-(4-aminopiperidin-1-yl)-1-(4-cyclopropyl-3-fluorophenyl)-6-oxopyrimidin-2-yl]-2-fluorobenzonitrile]
2 | < 100 | ≤ 100 | N#Cc1ccc(-c2nc(N3CCC4CNCC4C3)cc(=O)n2-c2ccc(C3CC3)cc2)cc1F (stereo not drawn) [Example 28, 4-[4-(1,2,3,3a,4,6,7,7a-octahydropyrrolo[3,4-c]pyridin-5-yl)-1-(4-cyclopropylphenyl)-6-oxopyrimidin-2-yl]-2-fluorobenzonitrile]
3 | < 100 | ≤ 100 | N#Cc1ccc(-c2nc(N3CCC4(CCNC4)CC3)cc(=O)n2-c2ccc(C3CC3)cc2)cc1F [Example 29, 4-[1-(4-cyclopropylphenyl)-4-(2,8-diazaspiro[4.5]decan-8-yl)-6-oxopyrimidin-2-yl]-2-fluorobenzonitrile]
4 | < 100 | ≤ 100 | Cn1cnc2cc(-c3sc(C(=O)N4CCC(N)CC4)nc3-c3ccc(C#N)cc3)ccc21 [Example 18, 4-[2-(4-aminopiperidine-1-carbonyl)-5-(1-methyl-1H-1,3-benzodiazol-5-yl)-1,3-thiazol-4-yl]benzonitrile]
5 | < 100 | ≤ 100 | Cn1cnc2cc(-c3sc(N4CCC(N)CC4)nc3-c3ccc(C#N)cc3)cnc21 [Example 9, 4-[2-(4-aminopiperidin-1-yl)-5-{3-methyl-3H-imidazo[4,5-b]pyridin-6-yl}-1,3-thiazol-4-yl]benzonitrile]
6 | 100 to 1000 | ≤ 100 | Cn1cc2cc(-n3c(-c4ccc(C#N)c(F)c4)nc(N4CCC(N)CC4)cc3=O)ccc2n1 [Example 31, 4-[4-(4-aminopiperidin-1-yl)-1-(2-methylindazol-5-yl)-6-oxopyrimidin-2-yl]-2-fluorobenzonitrile]
7 | < 100 | ≤ 100 | Cn1ncc2cc(-c3sc(N4CCC(N)CC4)nc3-c3ccc(C#N)cc3)cnc21 [Example 4, 4-[2-(4-aminopiperidin-1-yl)-5-{1-methyl-1H-pyrazolo[3,4-b]pyridin-5-yl}-1,3-thiazol-4-yl]benzonitrile]
8 | 100 to 1000 | ≤ 100 | Cn1cnc2cc(-c3sc(C(=O)N4CCC[C@@H](N)C4)nc3-c3ccc(C#N)cc3)cnc21 [Example 20, 4-{2-[(3R)-3-aminopiperidine-1-carbonyl]-5-{3-methyl-3H-imidazo[4,5-b]pyridin-6-yl}-1,3-thiazol-4-yl}benzonitrile]
9 | < 100 | ≤ 100 | Cn1cnc2cc(-c3sc(C(=O)N4CCC[C@H](N)C4)nc3-c3ccc(C#N)cc3)ccc21 [Example 17, 4-{2-[(3 S)-3-aminopiperidine-1-carbonyl]-5-(1-methyl-1H-1,3-benzodiazol-5-yl)-1,3-thiazol-4-yl}benzonitrile]
10 | < 100 | ≤ 100 | N#Cc1ccc(-c2nc(N3CCC(N)CC3)sc2-c2cnn(CC(F)(F)F)c2)cc1 [Example 12, 4-[2-(4-aminopiperidin-1-yl)-5-[1-(2,2,2-trifluoroethyl)-1H-pyrazol-4-yl]-1,3-thiazol-4-yl]benzonitrile]
11 | < 100 | ≤ 100 | Cn1cnc2cc(-c3sc(N4CC[C@@H]5CNC[C@@H]5CC4)nc3-c3ccc(C#N)cc3)ccc21 [Example 10, cis-4-(2-{decahydropyrrolo[3,4-d]azepin-6-yl}-5-(1-methyl-1H-1,3-benzodiazol-5-yl)-1,3-thiazol-4-yl)benzonitrile]
12 | < 100 | ≤ 100 | Cn1ncc2cc(-c3sc(N4CCC5CNCC5C4)nc3-c3ccc(C#N)cc3)ccc21 (stereo not drawn) [Example 7]
13 | – | ≤ 100 | COc1ccc(-n2c(-c3ccc(C#N)c(F)c3)nc(N3CCC(N)CC3)cc2=O)cc1 [Example 32, 4-[4-(4-aminopiperidin-1-yl)-1-(4-methoxyphenyl)-6-oxopyrimidin-2-yl]-2-fluorobenzonitrile]
14 | 100 to 1000 | ≤ 100 | N#Cc1ccc(-c2nc(N3CCC(N)CC3)sc2-c2cnn(CC3CC3)c2)cc1 [Example 14, 4-[2-(4-aminopiperidin-1-yl)-5-[1-(cyclopropylmethyl)-1H-pyrazol-4-yl]-1,3-thiazol-4-yl]benzonitrile]
15 | 100 to 1000 | ≤ 100 | N#Cc1ccc(-c2nc(N3CC[C@@H]4CNC[C@@H]4CC3)sc2-c2cnn(CC3CC3)c2)cc1 [Example 15, 4-{5-[1-(cyclopropylmethyl)-1H-pyrazol-4-yl]-2-{decahydropyrrolo[3,4-d]azepin-6-yl}-1,3-thiazol-4-yl}benzonitrile]
16 | < 100 | ≤ 100 | N#Cc1ccc(-c2nc(N3CC[C@@H]4CNC[C@@H]4CC3)sc2-c2cnn(CC(F)(F)F)c2)cc1 [Example 13, 4-(2-{decahydropyrrolo[3,4-d]azepin-6-yl}-5-[1-(2,2,2-trifluoroethyl)-1H-pyrazol-4-yl]-1,3-thiazol-4-yl)benzonitrile]
17 | < 100 | ≤ 100 | Cn1ncc2cc(-c3sc(N4CCC(N)CC4)nc3-c3ccc(C#N)cc3)ccc21 [Example 1, 4-[2-(4-aminopiperidin-1-yl)-5-(1-methyl-1H-indazol-5-yl)-1,3-thiazol-4-yl]benzonitrile]
18 | < 100 | ≤ 100 | Cn1cc2cc(-c3sc(N4CCC(N)CC4)nc3-c3ccc(C#N)cc3)ccc2n1 [Example 34]
19 | < 100 | ≤ 100 | N#Cc1ccc(-c2nc(N3CCC4NCCC4C3)cc(=O)n2-c2ccc(C3CC3)cc2)cc1F (stereo not drawn) [Example 27, 4-[4-(1,2,3,3a,4,6,7,7a-octahydropyrrolo[3,2-c]pyridin-5-yl)-1-(4-cyclopropylphenyl)-6-oxopyrimidin-2-yl]-2-fluorobenzonitrile]
20 | < 100 | ≤ 100 | Cn1ncc2cc(-c3sc(N4CCC5NCCC5C4)nc3-c3ccc(C#N)cc3)ccc21 (stereo not drawn) [Example 6]
21 | < 100 | ≤ 100 | N#Cc1ccc(-c2nc(N3CCC(N)CC3)cc(=O)n2-c2ccc(C3CC3)cc2)cc1F [Example 26, 4-[4-(4-Aminopiperidin-1-yl)-1-(4-cyclopropylphenyl)-6-oxopyrimidin-2-yl]-2-fluorobenzonitrile]
22 | < 100 | ≤ 100 | Cn1cnc2cc(-c3sc(C(=O)N4CCC[C@@H](N)C4)nc3-c3ccc(C#N)cc3)ccc21 [Example 16, 4-{2-[(3R)-3-aminopiperidine-1-carbonyl]-5-(1-methyl-1H-1,3-benzodiazol-5-yl)-1,3-thiazol-4-yl}benzonitrile]
23 | < 100 | – | Cn1ncc2cc(-c3sc(N4CC[C@@H]5CNC[C@@H]5CC4)nc3-c3ccc(C#N)cc3)ccc21 [Example 2, cis-4-(2-{decahydropyrrolo[3,4-d]azepin-6-yl}-5-(1-methyl-1H-indazol-5-yl)-1,3-thiazol-4-yl)benzonitrile]
24 | < 100 | ≤ 100 | Cn1ccc2cc(-c3sc(N4CCC(N)CC4)nc3-c3ccc(C#N)cc3)cnc21 [Example 3, 4-[2-(4-aminopiperidin-1-yl)-5-{1-methyl-1H-pyrrolo[2,3-b]pyridin-5-yl}-1,3-thiazol-4-yl]benzonitrile]
25 | < 100 | ≤ 100 | Cc1ccc(-c2sc(C(=O)N3CCC[C@@H](N)C3)nc2-c2ccc(C#N)cc2)cc1 [Example 19, 4-{2-[(3R)-3-aminopiperidine-1-carbonyl]-5-(4-methylphenyl)-1,3-thiazol-4-yl}benzonitrile]
